Experimental data as given in ChEMBL document CHEMBL4270560, “Novel curcumin analogue hybrids: Synthesis and anticancer activity” (Eur J Med Chem, 2018).

Key:
[1] = target: T1, Thioredoxin reductase 1, cytoplasmic (Homo sapiens, UniProt Q16881); assay: (§1) Inhibition of TrxR in human SGC7901 cells; type: cell-based
T1 sequence (Q16881 whole entry): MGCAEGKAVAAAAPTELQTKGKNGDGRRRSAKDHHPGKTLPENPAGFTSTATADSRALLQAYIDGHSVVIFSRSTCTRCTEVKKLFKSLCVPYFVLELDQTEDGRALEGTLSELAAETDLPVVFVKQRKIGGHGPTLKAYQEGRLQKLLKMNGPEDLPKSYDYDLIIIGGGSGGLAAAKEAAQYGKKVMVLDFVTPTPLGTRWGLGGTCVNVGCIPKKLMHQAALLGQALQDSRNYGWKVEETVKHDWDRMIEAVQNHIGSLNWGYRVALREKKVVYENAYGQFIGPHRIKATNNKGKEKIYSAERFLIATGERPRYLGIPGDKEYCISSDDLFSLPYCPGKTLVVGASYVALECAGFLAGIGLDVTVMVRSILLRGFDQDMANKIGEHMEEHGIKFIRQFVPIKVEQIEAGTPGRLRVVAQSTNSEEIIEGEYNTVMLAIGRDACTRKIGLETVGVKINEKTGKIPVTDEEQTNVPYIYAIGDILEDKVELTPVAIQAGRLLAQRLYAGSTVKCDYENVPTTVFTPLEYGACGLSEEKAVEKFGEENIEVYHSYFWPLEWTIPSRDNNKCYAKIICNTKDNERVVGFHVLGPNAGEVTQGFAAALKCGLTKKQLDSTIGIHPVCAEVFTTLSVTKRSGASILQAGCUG

[2] = target: T2, Thioredoxin reductase 1, cytoplasmic (Homo sapiens) (UniProt Q16881); assay: as §1; type: cell-based
T2 sequence (whole entry): T1 sequence (Q16881 whole entry)

SGC-7901 [3] = assay: Induction of apoptosis in human SGC7901 cells assessed as necrotic cells at 1200 nM after 48 hrs in presence of NAC by Annexin V-FITC/propidium iodide staining based flow cytometric analysis (reference value: 0.304%); type: functional
SGC-7901 [4] = assay: Induction of apoptosis in human SGC7901 cells assessed as early apoptotic cells at 800 nM after 48 hrs by Annexin V-FITC/propidium iodide staining based flow cytometric analysis (reference value: 2.30%); type: functional
SGC-7901 [5] = assay: Induction of mitochondrial membrane depolarization in human SGC7901 cells assessed as cells with mitochondrial membrane potential loss at 1200 nM after 48 hrs in presence of NAC by JC-1 staining based flow cytometric analysis (reference value: 1.65%); type: functional
SGC-7901 [6] = assay: Cell cycle arrest in human SGC7901 cells assessed as accumulation at S phase at 1000 nM after 48 hrs by propidium iodide staining based flow cytometric analysis (reference value: 33.30%); type: functional

IC50 [1]: 783 nM
inhibition [2]: Dose-dependent effect
SMILES: COc1cc(OC)c2c(=O)c(OCCCOc3ccccc3/C=C/C(=O)/C=C/c3ccccn3)c(-c3cc(OC)c(OC)c(OC)c3)oc2c1
Activity (SGC-7901 [3]): 0.225%
Activity (SGC-7901 [4]): 24.5%
Activity (SGC-7901 [5]): 1.74%
Activity (SGC-7901 [6]): 33.28%
